The source of these data is patent publication US7881777B2, “Method and apparatus for performing intra-operative angiography” (National Research Council of Canada, priority 1999, dated 2011).

The test relates to mouse femoral artery. Kind of test: Mouse femoral vessel diameter by ICG fluorescence angiography under topically applied acetylcholine. Conditions: mouse femoral artery in vivo. The protocol: In this example, a fluorescent dye (ICG) was injected into the vascular bed (via jugular cannulation in the mouse: via an infusion line in the langendorff perfused heart) and excited using radiation from a laser source (806 nm). The fluorescence (radiation) emitted by the dye (830 nm) was captured as a series of angiograms using a CCD camera. The camera relayed the angiograms to analog-to-digital conversion software running on a PC that digitized the angiograms. The digitized images were then analyzed both qualitatively (by viewing the monitor) and quantitatively. One example of quantitative evaluation that was undertaken was the determination of the mouse femoral artery diameter using software comprising a sub-pixel edge detection system running on the PC.
The foregoing fluorescence imaging technique was used on the mouse femoral artery in vivo. A more detailed explanation of each component of the apparatus, preparation of the animal, injection of ICG, and analytical method, are set forth in the following paragraphs.
The mouse was prepared by inducing anesthesia in an induction box using isoflurane (Ohmeda Pharmaceutical Products, Mississauga, ON, Canada) (4% in medical air, 4 L/min) and maintained by use of a facemask providing isoflurane at a rate of 1.5-2.0% in medical air (400 mL/min). During the experiment, the mouse was positioned on a thermostatted water blanket, with body temperature being monitored by a rectal temperature probe. To facilitate imaging of the vessels of interest, the thoracic, abdominal and inguinal areas of the mouse were shaved, the mouse positioned on its back, and the skin over the femoral vasculature was resected to expose the vasculature of interest. The jugular vein was cannulated using a piece of stretched PE10 tubing filled with saline containing 50 U heparin/mL.
After the mouse was prepared, a 10 μl bolus IV injection of ICG was administered, followed by an IV injection of 50 μl of saline solution. To prepare the bolus, 4 μg/ml of clinical grade ICG (CARDIO-GREEN™) was dissolved in sterile aqueous solvent within one hour of injection. All injections were administered via the cannula established in the jugular vein. The saline was used to flush the line and to ensure passage of an intact bolus through the femoral vasculature, producing a sharp wavefront.
Image analysis was performed using XCAP for Windows 95/98/NT version 1.0 (EPIX Inc., Buffalo Grove, Ill.). The image processing algorithm included the following steps.
1. Selection of vessels of interest. The anatomy of the vasculature varies between animals. Consequently, it was necessary to develop criteria for the selection of an area of interest. This process began with the positioning of the camera. The camera was positioned so that the field of view included the femoral artery and its branches. For the purposes of image analysis, the vessels of interest were the femoral artery and the branches that provided the highest resolution and the greatest degree of branching, usually tertiary or quaternary.
2. Calibration. The positioning of the camera with respect to the area being imaged varied with each animal, and it was therefore necessary to calibrate the camera for every image collected. A small diameter (320 μm) capillary tube (TSP320450; Polymicro Technologies, LLC, Phoenix, Ariz.) filled with ICG was used to calibrate the images. The image processing software includes a built-in calibration function that allows the specification of a set of pixel co-ordinates and the assignment of a user-defined value to the distance between these co-ordinates. The software's edge detector was used to determine the co-ordinates of the edges of the dye fluorescing in the capillary tube. The inner diameter of the capillary tube, in microns, was then assigned to the “length” of the distance between these points. Because this is a built-in feature of the software, all subsequent measurements in all frames of the image were stated in microns, rather than pixel units. […]

`CC(=O)OCC[N+](C)(C)C` [Acetylcholine, acetylcholine]: the “Vessel Diameter (microns)” value (Primary vessel, acetylcholine concentration 0.01 μM) stood at 58.2 ± 1.3 microns; the “Vessel Diameter (microns)” value (Primary vessel, acetylcholine concentration 1.0 μM) is 58.3 ± 1.5 microns; the “Vessel Diameter (microns)” value (Primary vessel, acetylcholine concentration 10.0 μM) is reported as 64.6 ± 1.5 microns; the “Vessel Diameter (microns)” value (Primary vessel, acetylcholine concentration .01 μM) was found to be 61.5 ± 1.7 microns; the “Vessel Diameter (microns)” value (Secondary vessel, acetylcholine concentration 0.01 μM) came out at 67.0 ± 1.3 microns; the “Vessel Diameter (microns)” value (Secondary vessel, acetylcholine concentration 1.0 μM) came out at 90.0 ± 1.8 microns. For the same molecule, the “Vessel Diameter (microns)” value is, setting by setting: (Secondary vessel, acetylcholine concentration 10.0 μM) 75.0 ± 1.4 microns; (Secondary vessel, acetylcholine concentration .01 μM) 75.1 ± 1.2 microns; (Tertiary vessel, acetylcholine concentration 0.01 μM) 42.9 ± 0.6 microns; (Tertiary vessel, acetylcholine concentration 1.0 μM) 47.1 ± 1.2 microns; (Tertiary vessel, acetylcholine concentration 10.0 μM) 42.9 ± 0.8 microns; (Tertiary vessel, acetylcholine concentration .01 μM) 44.9 ± 0.6 microns.
